{"source": "patent US7807684B2", "about": "“HIV reverse transcriptase inhibitors” (Merck Sharp & Dohme Corp., priority 2005, dated 2010)", "assay": "Oral dosing to rats, bioavailability", "assay_type": "in vivo", "details": "compared to analogous dosing of the compound of Example 36"}
{"compound": "CNCCN(C)C(=O)n1nc(COc2ccc(Cl)c(Oc3cc(Cl)cc(C#N)c3)c2)c2cccnc21.Cl", "note": "[Example 59, 2-[[(3-{[4-chloro-3-(3-chloro-5-cyanophenoxy)phenoxy]methyl}-1H-pyrazolo[3,4-b]pyridin-1-yl)carbonyl](methyl)amino]-N-methylethanaminium chloride]", "values": [{"measurement": "Bioavailability", "result": "substantially higher bioavailability"}]}
